The record followed here is ChEMBL document CHEMBL3860033, “Recent advances of cytotoxic chalconoids targeting tubulin polymerization: Synthesis and biological activity” (Eur J Med Chem, 2016).

Molecules are shown by their SMILES.

Experiment [1] can be described thus: Cytotoxicity against human HCT116 cells assessed as decrease in cell viability after 72 hrs by MTT assay. In kind it is functional, cell-based. To be noted: HCT-116, 72 h.
Experiment [2] in a line: Cytotoxicity against human HeLa cells assessed as decrease in cell viability after 72 hrs by MTT assay. In kind it is functional, cell-based.
Experiment [3] can be described thus: Cytotoxicity against human A549 cells assessed as decrease in cell viability after 72 hrs by MTT assay. To be noted: A549, 72 h. In kind it is functional, cell-based.
Experiment [4] can be described thus: Cytotoxicity against human K562 cells assessed as growth inhibition after 5 days by MTT assay. In kind it is functional, cell-based. To be noted: K562, 120 h.
Experiment [5] in a line: Cytotoxicity against human NCI60 cells after 48 hrs by SRB assay. In kind it is functional. The conditions noted are these: NCI60, 48 h.
Experiment [6] can be described thus: Cytotoxicity against human Capan1 cells assessed as decrease in cell viability after 24 to 48 hrs by CCK8 assay. In kind it is functional, cell-based. The conditions noted are these: CAPAN-1.
Experiment [7] can be described thus: Displacement of [3H]-colchicine from porcine tubulin. The arrangement: species or system Sus scrofa.
A short description of experiment [8]: Inhibition of porcine brain tubulin polymerization by spectrophotometric method. The arrangement: species or system Sus scrofa.
Experiment [9] can be described thus: Cytotoxicity against human SW620 cells assessed as decrease in cell viability after 24 to 48 hrs by CCK8 assay. In kind it is functional, cell-based. The conditions noted are these: SW-620.
The next experiment is filed under the species Ovis aries. Nature of the experiment: Binding affinity to lamb brain tubulin using ultracentrifuge by absorbance assay.

With `CCOc1cc2c(cc1C(=O)/C=C/c1ccc(OC)c(O)c1)OCS2`, the IC50 in experiment [1], in experiment [2] and in experiment [3] was 0.001 to 0.009 µM throughout. As to `COc1ccc(C=C(C)C(=O)c2cc(OC)c(OC)c(OC)c2)cc1O`, the IC50 in experiment [4] worked out at 0.0002 µM.

In experiment [5], `COc1cc(C(=O)C2OC2c2cc(OC)c(OC)c(OC)c2)cc(OC)c1OC` (stereo not given) displayed a GI50 of 14.1 µM.

As for `COc1ccc(C(=O)/C=C/c2cccc3ccccc23)c(O)c1`, the IC50 in experiment [6] was found to be 5.2 µM. As to `COc1ccc(/C=C2\Oc3c(cc(OC)c(OC)c3OC)C2=O)cc1O`, the IC50 in experiment [7] was 60 µM; in experiment [8], 22 µM. As to `COc1cc(OC)c(/C=C/C(=O)c2c(O)ccc3ccccc23)c(OC)c1`, the IC50 in [9] was found to be 14.5 µM.

Regarding `COc1cc(OC)c(C(=O)/C=C/c2cn(C)c3ccccc23)c(OC)c1`, the Kapp in the experiment listed under Ovis aries worked out at 2 ×10⁵ /M.
